According to ChEMBL document CHEMBL1201862, “PubChem BioAssay data set” (2004):
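Grown in 96-well plates, cells were treated for 48 hours with each compound at five concentrations. Insufficient inhibition: endpoint recorded as highest concentration tested. Abbreviation: GI50, concentration required for 50% inhibition of growth.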 Active and inactive are the calls of the source. Cut-off read from the data, not from the text of the source: active = GI50 up to about 1.1 µM and inactive = higher.

Experiments:
Assay in all cases: NCI-60 cell line screen, 48 h
[1] = test system: ACHN
[2] = test system: BT-549
[3] = test system: COLO 205
[4] = test system: DMS-114
[5] = test system: DU-145
[6] = test system: HOP-62
[7] = test system: KM-20L2
[8] = test system: MCF7
[9] = test system: Malme-3M
[10] = test system: OVCAR-3
[11] = test system: OVCAR-8
[12] = test system: PC-3
[13] = test system: SF-295
[14] = test system: SK-MEL-28
[15] = test system: SK-MEL-2
[16] = test system: SK-MEL-5
[17] = test system: SNB-78
[18] = test system: T47D
[19] = test system: M19-MEL
[20] = test system: DMS-273

Row | Compound | GI50 [1] | GI50 [2] | GI50 [3] | GI50 [4] | GI50 [5] | GI50 [6] | GI50 [7] | GI50 [8] | GI50 [9] | GI50 [10] | GI50 [11] | GI50 [12] | GI50 [13] | GI50 [14] | GI50 [15] | GI50 [16] | GI50 [17] | GI50 [18] | GI50 [19] | GI50 [20]
1 | CC1=NN(C(=O)c2ccccc2O)C(=O)/C1=C/c1ccc(O)cc1 | 0.204 µM (active) | 0.279 µM (active) | 34.9 µM (inactive) | 0.348 µM (active) | 0.492 µM (active) | 0.662 µM (active) | 36.5 µM (inactive) | 0.382 µM (active) | 0.431 µM (active) | 0.278 µM (active) | 0.358 µM (active) | 0.368 µM (active) | 0.379 µM (active) | 52.2 µM (inactive) | 2.13 µM (inactive) | 0.301 µM (active) | > 100 µM (inactive) | 4.03 µM (inactive) | – | –
2 | C/C(=N\NC(=O)c1ccncc1)c1sc(-n2nc(-c3ccccc3)cc2-c2ccccc2)nc1C | > 31.6 µM (inactive) | > 31.6 µM (inactive) | > 100 µM (inactive) | – | > 31.6 µM (inactive) | > 31.6 µM (inactive) | – | > 31.6 µM (inactive) | > 56.2 µM (inactive) | 25.1 µM (inactive) | > 100 µM (inactive) | > 31.6 µM (inactive) | > 31.6 µM (inactive) | > 31.6 µM (inactive) | > 31.6 µM (inactive) | > 31.6 µM (inactive) | – | 18.5 µM (inactive) | – | –
3 | Fc1ccc(C(OCCN2CCN(CCCc3ccccc3)CC2)c2ccc(F)cc2)cc1 | 5.82 µM (inactive) | 7.05 µM (inactive) | 2.75 µM (inactive) | – | 5.97 µM (inactive) | 5.32 µM (inactive) | – | 4.59 µM (inactive) | 5.31 µM (inactive) | 4.15 µM (inactive) | 3.92 µM (inactive) | 3.44 µM (inactive) | 4.39 µM (inactive) | 9.73 µM (inactive) | 3.75 µM (inactive) | 3.34 µM (inactive) | – | 4.9 µM (inactive) | – | –
4 | CN(C)CN1C(=O)/C(=N\n2c(S)nnc2-c2ccncc2)c2ccccc21 | 48.1 µM (inactive) | 94.4 µM (inactive) | 38.3 µM (inactive) | – | 26.5 µM (inactive) | 24.8 µM (inactive) | – | 31.3 µM (inactive) | > 100 µM (inactive) | 66.5 µM (inactive) | 23.7 µM (inactive) | 35.6 µM (inactive) | > 100 µM (inactive) | 57.1 µM (inactive) | 21.4 µM (inactive) | 39.4 µM (inactive) | – | 30.8 µM (inactive) | – | –
5 | O=C(O)CCCCCCC[C@H]1S[C@H]1CCCCCCO | – | – | > 100 µM (inactive) | > 100 µM (inactive) | – | > 100 µM (inactive) | – | – | > 100 µM (inactive) | > 100 µM (inactive) | > 100 µM (inactive) | – | > 100 µM (inactive) | > 100 µM (inactive) | > 100 µM (inactive) | > 100 µM (inactive) | > 100 µM (inactive) | – | > 100 µM (inactive) | –
6 | O=C(CC1(O)C(=O)Nc2c(Cl)cc(Cl)cc21)c1ccco1 (stereo not drawn) | 83.6 µM (inactive) | – | > 100 µM (inactive) | 22.8 µM (inactive) | – | 60.1 µM (inactive) | 48.3 µM (inactive) | – | > 100 µM (inactive) | 21.2 µM (inactive) | 37.4 µM (inactive) | – | 32 µM (inactive) | > 100 µM (inactive) | 60.7 µM (inactive) | 77.6 µM (inactive) | 26.9 µM (inactive) | – | – | 38.8 µM (inactive)
7 | COc1cc(OC)nc(-n2c(N)c(C(=O)O)c3ccc([N+](=O)[O-])cc3c2=O)n1 | > 100 µM (inactive) | > 100 µM (inactive) | > 100 µM (inactive) | – | > 100 µM (inactive) | > 100 µM (inactive) | – | > 100 µM (inactive) | > 100 µM (inactive) | > 100 µM (inactive) | > 100 µM (inactive) | > 100 µM (inactive) | > 100 µM (inactive) | 97.7 µM (inactive) | > 100 µM (inactive) | > 100 µM (inactive) | – | > 100 µM (inactive) | – | –
8 | CC(=O)C1C(=O)C(=O)N(c2ccc(Cl)cc2C)C1=O (stereo not drawn) | > 100 µM (inactive) | – | > 100 µM (inactive) | > 100 µM (inactive) | – | > 100 µM (inactive) | > 100 µM (inactive) | – | > 100 µM (inactive) | – | > 100 µM (inactive) | – | > 100 µM (inactive) | > 100 µM (inactive) | > 100 µM (inactive) | > 100 µM (inactive) | > 100 µM (inactive) | – | > 100 µM (inactive) | –
9 | O=C1NC2CCCCCC2C12CCCCC2 (stereo not drawn) | > 100 µM (inactive) | – | – | > 100 µM (inactive) | – | > 100 µM (inactive) | > 100 µM (inactive) | – | > 100 µM (inactive) | > 100 µM (inactive) | – | – | > 100 µM (inactive) | > 100 µM (inactive) | – | – | > 100 µM (inactive) | – | > 100 µM (inactive) | –
10 | COc1cccc(C(=O)C#Cc2cnc(OC)nc2OC)c1 | 1.73 µM (inactive) | 0.306 µM (active) | 1.77 µM (inactive) | – | 5.87 µM (inactive) | 13.5 µM (inactive) | – | 0.126 µM (active) | 1.38 µM (inactive) | 1.81 µM (inactive) | 1.7 µM (inactive) | 1.37 µM (inactive) | 14.2 µM (inactive) | 2.04 µM (inactive) | 1.8 µM (inactive) | 1.24 µM (inactive) | – | 1.83 µM (inactive) | – | –
11 | Cn1c2ccccc2c2ccc3c(c21)C(=O)C(c1ccccc1)=CC3=O | 54.2 µM (inactive) | – | 31.1 µM (inactive) | 17.9 µM (inactive) | – | 13.4 µM (inactive) | – | – | 21.9 µM (inactive) | 23.7 µM (inactive) | 14.9 µM (inactive) | – | 61.4 µM (inactive) | 24 µM (inactive) | 22 µM (inactive) | 22.8 µM (inactive) | > 100 µM (inactive) | – | 24 µM (inactive) | 21.5 µM (inactive)
12 | CCCCCCCCCCCCCCCCP(=O)([O-])OCC[N+](C)(C)C | 16.5 µM (inactive) | 9.53 µM (inactive) | 6.58 µM (inactive) | – | 14.7 µM (inactive) | 15.2 µM (inactive) | – | 17.5 µM (inactive) | 21.3 µM (inactive) | 17.1 µM (inactive) | 16.9 µM (inactive) | 1.71 µM (inactive) | 12.9 µM (inactive) | 18.5 µM (inactive) | 15.1 µM (inactive) | 16 µM (inactive) | – | 17.6 µM (inactive) | – | –
13 | N#C/C(=C/c1ccco1)C(=O)c1ccccc1 | > 100 µM (inactive) | – | > 100 µM (inactive) | > 100 µM (inactive) | – | – | – | – | > 100 µM (inactive) | – | > 100 µM (inactive) | – | > 100 µM (inactive) | > 100 µM (inactive) | > 100 µM (inactive) | > 100 µM (inactive) | > 100 µM (inactive) | – | > 100 µM (inactive) | –
14 | Cc1ccc(S(=O)(=O)N/N=C(/c2nc3ccc([N+](=O)[O-])cc3nc2O)C(O)c2ccc(C(O)/C(=N\NS(=O)(=O)c3ccc(C)cc3)c3nc4ccc([N+](=O)[O-])cc4nc3O)cc2)cc1 (stereo not drawn) | 28.6 µM (inactive) | – | 41.4 µM (inactive) | 5.98 µM (inactive) | – | 43.1 µM (inactive) | 55.8 µM (inactive) | – | > 100 µM (inactive) | 61.2 µM (inactive) | 92.3 µM (inactive) | – | – | > 100 µM (inactive) | 77.6 µM (inactive) | 28.1 µM (inactive) | > 100 µM (inactive) | – | – | 38.4 µM (inactive)
15 | COc1ccc(/C(Cl)=C(\C=O)c2ccc(OC)c(OC)c2)cc1 | 35.3 µM (inactive) | – | > 100 µM (inactive) | 25.9 µM (inactive) | – | – | > 100 µM (inactive) | – | 17.4 µM (inactive) | > 100 µM (inactive) | 65.6 µM (inactive) | – | 25.4 µM (inactive) | > 100 µM (inactive) | 18.5 µM (inactive) | 39.2 µM (inactive) | 29 µM (inactive) | – | > 100 µM (inactive) | –
16 | CC1C(/C=C/c2ccoc2)ON2CCCC12 (stereo not drawn) | > 100 µM (inactive) | – | > 100 µM (inactive) | – | – | > 10 µM (inactive) | > 100 µM (inactive) | – | 54.2 µM (inactive) | – | > 100 µM (inactive) | – | > 100 µM (inactive) | > 100 µM (inactive) | > 100 µM (inactive) | – | > 100 µM (inactive) | – | > 100 µM (inactive) | > 100 µM (inactive)
17 | COC(C(O)c1ccc2c(c1)OCO2)P(=O)(c1ccccc1)c1ccccc1 (stereo not drawn) | > 100 µM (inactive) | – | – | 77.3 µM (inactive) | – | > 100 µM (inactive) | – | – | 16 µM (inactive) | 15.1 µM (inactive) | 62.1 µM (inactive) | – | > 10 µM (inactive) | > 100 µM (inactive) | > 100 µM (inactive) | > 100 µM (inactive) | > 100 µM (inactive) | – | > 100 µM (inactive) | > 100 µM (inactive)
18 | c1ccc(N/N=C2\NN=C(c3ccccc3)CS2)cc1 | 4.38 µM (inactive) | – | – | – | – | 22.3 µM (inactive) | 6.46 µM (inactive) | – | – | 14.9 µM (inactive) | 5.27 µM (inactive) | – | 7.46 µM (inactive) | 16.3 µM (inactive) | 18.2 µM (inactive) | – | 5.46 µM (inactive) | – | – | –
19 | Nc1cc(O)c2cc(/N=N/c3ccc(/N=N/c4ccc(/N=N/c5ccc6cc(S(=O)(=O)O)cc(S(=O)(=O)O)c6c5)c5ccccc45)c4cc(S(=O)(=O)O)ccc34)c(S(=O)(=O)O)cc2c1 | – | – | > 100 µM (inactive) | – | – | > 100 µM (inactive) | > 10 µM (inactive) | > 100 µM (inactive) | > 100 µM (inactive) | 67.6 µM (inactive) | > 100 µM (inactive) | – | > 53.2 µM (inactive) | > 100 µM (inactive) | > 100 µM (inactive) | > 100 µM (inactive) | > 100 µM (inactive) | – | > 100 µM (inactive) | 97.1 µM (inactive)
20 | COc1cc(C2c3cc4c(cc3[C@@H](Oc3ccc(F)cc3)C3COC(=O)[C@H]23)OCO4)cc(OC)c1O (stereo partly drawn) | – | – | 1.75 µM (inactive) | – | – | 0.267 µM (active) | 0.286 µM (active) | 0.434 µM (active) | 0.653 µM (active) | 1.75 µM (inactive) | 0.447 µM (active) | – | 0.807 µM (active) | 3.15 µM (inactive) | – | 0.527 µM (active) | – | – | 0.671 µM (active) | 0.337 µM (active)
